# Results taken from patent US8877706B2, “Maytansinoid derivatives” (Bio-Thera Solutions, Ltd., Co., priority 2012, dated 2014).
# What was measured:
# tubulin = assay: HTS-Tubulin Polymerization Assay Kit, tubulin polymerization in vitro; type: biochemical; settings: 1 μM preparations, 10 μL added to 100 μL 4 mg/ml tubulin; 405 nm, 37° C.; compared with the PBS buffer
# Protocol: According to the instruction of kit, pre-warm the 96-well plate to 37° C. for 30 min prior to starting the assay. At the same time, the spectrophotometer (SpectraMax, Molecular Devices, USA) was set as follow: wavelength, 405 nm; temperature, 37° C.; Kinetic, 31 cycles of 1 reading per minute. Make cold G-PEM buffer (990 μL General Tubulin Buffer+10 μL GTP Stock) and keep it on ice. […] Immediately place the plate into the spectrophotometer and start recording using the kinetic setup described above. […] Nocodazole, the tubulin polymerization inhibitor, was set as a negative control. The metabolite Cys-3AA-MDC was prepared by reaction of 3AA-MDC with cysteine under the base DIEA in CH2Cl2. LC-MS (M+H^+) calc.: 964.5. found: 964.2. Rt: 12.97 min. The metabolite Lys-MCC-MDC was prepared by reaction of SMCC-MDC with lysine under the base DIEA in DMF. LC-MS (M+H^+) calc.: 1103.7. found: 1103.2. Rt: 13.00 and 13.18 min.
# [1] = system: EGFR positive tumor cell line A431; assay: Growth inhibition, relative cell proliferation with CCK-8, A431; type: cell-based, human; settings: A431, 72 hours
# Protocol: Briefly, cells were detached by using 0.25% (vol/vol) trypsin and suspended in complete medium. Aliquots of cells were plated into 96-well microdilution plates. […] After 72 hours, plates were washed twice with PBS (pH 7.5), and analyzed for relative cell proliferation with CCK-8 reagent.
# Raji cells = assay: Effect on the growth of Raji cells (CCK-8); settings: 3 days
# Protocol: Briefly, 10 thousands cells in 100 μL of DMEM:F12 (GBICO, CA) culture medium without serum were seeded into each well of a 96-well plate. Twice-fold serial dilutions of antibodies or conjugated form were prepared and each diluted antibodies were added in triplicate to the wells and the cultures were incubated at 37° C. for 3 days. The controls consisted of either medium alone or medium containing of Raji cell. After incubation, CCK-8 was added to each well and the absorbance at 450 nm of each well was determined in a Spectra Max spectrophotometer (Molecular Devices, Sunnyvale, Calif.).
# [2] = versus methotrexate, daunorubicin, and vincristine; cited from earlier work
# [3] = system: human acute lymphoblastic leukemia line C.E.M.; settings: cited from earlier work
compound,measurement,setting,value
CN[C@@H](C)C(=O)OC1CC(=O)N(C)c2cc(cc(OC)c2Cl)C/C(C)=C/C=C/C(OC)C2(O)CC(OC(=O)N2)C(C)C2OC12C (stereo partly shown) [Cys-3AA-MDC],inhibition of tubulin polymerization,tubulin,significantly inhibited the tubulin polymerization
Bat1206: monoclonal antibody (rituximab) binding the extracellular domain of CD20,inhibition of A431 cell proliferation,[1],had no effects on A431 cells
same,inhibition of CD20 positive cell growth,Raji cells,inhibitory effects
COc1cc2cc(c1Cl)N(C)C(=O)C[C@H](OC(=O)[C@H](C)N(C)C(=O)CCSC1CC(=O)N(CC3CCC(C(=O)NCCCC[C@H](N)C(=O)O)CC3)C1=O)[C@]1(C)O[C@H]1[C@H](C)[C@@H]1C[C@@](O)(NC(=O)O1)[C@H](OC)/C=C/C=C(\C)C2 (stereo partly shown) [Lys-mcc-MDC],inhibition of tubulin polymerization,tubulin,significantly inhibited the tubulin polymerization
COc1cc2cc(c1Cl)N(C)C(=O)C[C@H](OC(=O)[C@H](C)N(C)C(C)=O)[C@]1(C)O[C@H]1[C@H](C)[C@@H]1C[C@@](O)(NC(=O)O1)[C@H](OC)/C=C/C=C(\C)C2 [Maytansine],fold more cytotoxic than conventional chemotherapeutic agents,[2],100- to 1000 fold
same,concentration inhibiting C.E.M. line (as low as),[3],10^−7 μg/mL
"COc1cc2cc(c1Cl)N(C)C(=O)C[C@H](OC(=O)[C@H](C)N(C)C(=O)CCCCCN1C(=O)C=CC1=O)[C@]1(C)OC1[C@H](C)[C@@H]1C[C@@](O)(NC(=O)O1)[C@H](OC)/C=C/C=C(\C)C2 (stereo partly shown) [3AA-MDC, N2′-deacetyl-N2′-(6-maleimido-1-oxo-hexyl)maytansine]",inhibition of tubulin polymerization,tubulin,significantly inhibited the tubulin polymerization
